Literature values, collected in US20230158084A1, “PROBIOTICS, METABOLITES, AND USES THEREOF” (California Institute of Technology, priority 2018, published 2023).

Settings: adult mice; cited from earlier work

## C1=NCCCC1 [1-piperideine]
  conversion to 5AV in the brain: rapidly converted to 5AV
  entry into the brain: can enter the brain
